Columns and labels:
[1] = system: Human lung cancer cell line (H292); assay: Inhibition of H292 cell proliferation (CellTiter luminescent viability); assay type: cell-based; conditions: NCI-H292, Table IE2, CDK4/6 inhibitor-based, 96 hours; for inhibition at 0.01 µM: H292, 10 nM, read-out: Inhibition Rate at 10 nM (%); for inhibition at 0.5 µM: H292, 500 nM, read-out: Inhibition Rate at 500 nM (%)
[2] = target: T1, CDK6 (Homo sapiens, UniProt Q00534+Q96SW2); assay: Western blot degradation of CDK6; assay type: cell-based; conditions: MDA-MB-231 Cell; 24 hours
T1 construct: expression of target proteins in cells; endogenous in cells
Method: (§1) Conventional Western blot assay was performed to evaluate the effects of the compounds of the present disclosure on the expression of target proteins in cells.
(§2) (1) Cell Seeding and Protein Harvesting: The selected cells were processed according to the cell seeding procedure and protein harvesting procedure in Table II-2.
(§3) (2) To the collected supernatant, 5×SDS sample loading buffer was added, followed by denaturation at 95 °C for 5 minutes. The denatured samples were then separated by SDS-PAGE electrophoresis on a polyacrylamide gel. Proteins were transferred to a nitrocellulose membrane (0.45 μm NC membrane), blocked with blocking buffer at room temperature for 1 hour, and subjected to antibody incubation and development procedures according to the antibody manufacturer's instructions (Cell Signaling Technology).
(§4) Half-Maximal Degradation Concentration value (the drug concentration required for degrading proteins by 50%, abbreviated as DC50) reads method: comparing the grayscale values of Western blot bands from drug-treated samples with those from blank DMSO-treated controls, and identifying the drug concentration range at which the grayscale value is half that of the DMSO-treated control bands.
(§5) DC50 values can be calculated using ImageJ software to measure grayscale values of Western blot bands from drug-treated samples. The concentration-response curve is fitted to estimate the drug concentration corresponding to half the grayscale value.
(§6) Target protein remaining (%) refers to the percentage of target protein remaining in cells after treatment with protein degrader compounds.
(§7) Calculation method for target protein remaining (%): Use ImageJ software to measure grayscale values of Western blot bands from drug (protein degrader)-treated samples. The grayscale value of drug-treated bands is divided by that of internal control protein bands, and the resulting quotient is normalized to obtain the relative percentage of remaining target protein after protein degrader treatment.
(§8) Target protein degradation rate (%)=1−target protein remaining (%).

[3] = target: T2, CDK4 (Homo sapiens, UniProt P11802+Q96SW2); assay: Western blot degradation of CDK4; assay type: cell-based; conditions: MDA-MB-231 Cell; 24 hours
T2 construct: expression of target proteins in cells; endogenous in cells
Method: as §1, §2, §3, §4, §5, §6, §7, §8

[4] = system: Human myeloid monocytic leukemia cell line (MV-4-11); assay: Inhibition of MV-4-11 cell proliferation (CellTiter luminescent viability); assay type: cell-based; conditions: Homo sapiens, MV4-11, Table IE3, CDK4/6 inhibitor-based, 96 hours; for inhibition at 0.01 µM: MV-4-11, 10 nM, read-out: Inhibition Rate at 10 nM (%); for inhibition at 0.5 µM: MV-4-11, 500 nM, read-out: Inhibition Rate at 500 nM (%)
Summary of the method: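 Cells are seeded in 96-well plates, cultured at 37 °C, 5% CO2, and treated next day with 5-fold serial compound dilutions (stock series from 2000 μM; 0.5 μL into 100 μL medium). Viability is read by CellTiter-Meiluncell luminescence after the set exposure, and IC50 is taken from growth-inhibition curves.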

[5] = target: T3, human Cereblon WT GST-tagged protein (CRBN) (Homo sapiens, UniProt Q96SW2); assay: CRBN binding by HTRF (Cereblon binding kit)
T3 construct: purchased CISBIO 64BDCRBNPEH
Summary of the method: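 GST-tagged human Cereblon WT was incubated 3 h at room temperature with compound, thalidomide-Re tracer and Eu anti-GST antibody. Final compound concentrations were 10 to 0.00064 µM (7 points) or 2 and 0.5 µM. Inhibition rate was calculated from HTRF 665/620 nm ratios versus solvent and blank controls.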

T2 sequence (P11802 whole entry): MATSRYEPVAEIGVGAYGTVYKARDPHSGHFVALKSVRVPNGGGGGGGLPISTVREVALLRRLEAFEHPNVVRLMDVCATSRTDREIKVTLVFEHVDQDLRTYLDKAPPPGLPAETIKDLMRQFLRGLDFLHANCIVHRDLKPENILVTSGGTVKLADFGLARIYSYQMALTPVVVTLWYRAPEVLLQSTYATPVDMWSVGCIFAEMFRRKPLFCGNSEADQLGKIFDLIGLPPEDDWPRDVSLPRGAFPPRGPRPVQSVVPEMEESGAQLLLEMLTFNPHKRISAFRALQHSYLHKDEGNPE
T2 sequence (Q96SW2 whole entry): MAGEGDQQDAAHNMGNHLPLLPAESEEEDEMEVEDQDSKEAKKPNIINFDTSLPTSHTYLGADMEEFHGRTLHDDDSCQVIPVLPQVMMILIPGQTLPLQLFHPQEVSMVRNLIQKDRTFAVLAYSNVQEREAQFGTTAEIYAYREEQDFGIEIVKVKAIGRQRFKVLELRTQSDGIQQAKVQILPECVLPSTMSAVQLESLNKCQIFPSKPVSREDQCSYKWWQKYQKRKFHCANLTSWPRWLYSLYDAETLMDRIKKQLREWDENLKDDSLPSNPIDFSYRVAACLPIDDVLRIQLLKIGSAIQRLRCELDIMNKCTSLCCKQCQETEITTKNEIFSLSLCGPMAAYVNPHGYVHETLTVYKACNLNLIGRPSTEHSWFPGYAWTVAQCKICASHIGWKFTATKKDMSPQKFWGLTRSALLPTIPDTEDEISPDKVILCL
T2 sequence (Q16531 whole entry partner): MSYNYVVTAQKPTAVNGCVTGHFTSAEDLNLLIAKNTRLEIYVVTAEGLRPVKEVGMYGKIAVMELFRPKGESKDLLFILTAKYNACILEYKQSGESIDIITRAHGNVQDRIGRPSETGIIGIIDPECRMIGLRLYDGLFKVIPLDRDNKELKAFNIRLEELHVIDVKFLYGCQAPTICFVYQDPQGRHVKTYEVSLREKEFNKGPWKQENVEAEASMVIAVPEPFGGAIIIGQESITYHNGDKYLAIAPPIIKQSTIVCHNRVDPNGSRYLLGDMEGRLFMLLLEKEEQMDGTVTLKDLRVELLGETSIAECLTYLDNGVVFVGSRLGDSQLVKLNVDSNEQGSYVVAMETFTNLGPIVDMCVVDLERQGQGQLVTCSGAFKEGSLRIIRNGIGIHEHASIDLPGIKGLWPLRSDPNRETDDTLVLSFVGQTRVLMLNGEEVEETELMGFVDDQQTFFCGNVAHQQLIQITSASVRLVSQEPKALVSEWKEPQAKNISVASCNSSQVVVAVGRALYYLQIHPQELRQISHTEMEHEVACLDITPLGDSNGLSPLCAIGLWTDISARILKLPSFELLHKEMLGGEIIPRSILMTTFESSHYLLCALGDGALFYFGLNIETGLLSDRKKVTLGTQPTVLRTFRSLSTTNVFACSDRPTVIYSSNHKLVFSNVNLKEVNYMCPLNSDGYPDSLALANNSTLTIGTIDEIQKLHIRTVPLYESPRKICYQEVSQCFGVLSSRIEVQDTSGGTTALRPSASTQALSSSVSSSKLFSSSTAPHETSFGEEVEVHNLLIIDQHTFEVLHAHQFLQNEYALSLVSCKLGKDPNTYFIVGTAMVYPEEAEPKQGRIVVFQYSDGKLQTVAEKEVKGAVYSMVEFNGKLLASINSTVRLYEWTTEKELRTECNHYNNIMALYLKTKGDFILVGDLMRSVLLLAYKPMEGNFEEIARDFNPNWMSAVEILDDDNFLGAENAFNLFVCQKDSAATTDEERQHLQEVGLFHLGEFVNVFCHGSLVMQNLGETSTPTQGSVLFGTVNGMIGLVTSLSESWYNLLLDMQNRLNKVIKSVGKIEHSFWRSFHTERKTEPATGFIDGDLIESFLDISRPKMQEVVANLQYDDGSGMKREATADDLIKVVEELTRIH
T1 sequence (Q00534 whole entry): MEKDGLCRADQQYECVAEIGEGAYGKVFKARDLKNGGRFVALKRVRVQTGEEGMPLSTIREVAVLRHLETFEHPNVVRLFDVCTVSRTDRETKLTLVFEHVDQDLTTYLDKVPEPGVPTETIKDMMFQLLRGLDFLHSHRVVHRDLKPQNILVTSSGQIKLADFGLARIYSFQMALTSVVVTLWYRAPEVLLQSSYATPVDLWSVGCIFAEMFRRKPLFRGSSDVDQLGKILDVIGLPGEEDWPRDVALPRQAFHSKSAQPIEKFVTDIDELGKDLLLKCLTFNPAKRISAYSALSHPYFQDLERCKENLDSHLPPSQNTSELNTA
T1 sequence (Q96SW2 whole entry): as the sequence (Q96SW2 whole entry) above
T1 sequence (Q16531 whole entry partner): as the sequence (Q16531 whole entry partner) above
T3 sequence (Q96SW2 whole entry): as the sequence (Q96SW2 whole entry) above

SMILES | inhibition at 0.01 µM [1] [%] | inhibition at 0.5 µM [1] [%] | Degradation of substrate protein CDK6 (substrate protein remaining %) [2] | Degradation of substrate protein CDK4 (substrate protein remaining %) [3] | inhibition at 0.01 µM [4] [%] | inhibition at 0.5 µM [4] [%] | inhibition at 0.5 µM ([5]; 0.5 μM, read-out: Inhibition Rate at 0.5 μM (%)) [%] | inhibition at 2 µM ([5]; 2 μM, read-out: Inhibition Rate at 2 μM (%)) [%]
CN(C)C(=O)c1cc2cnc(Nc3ccc(N4CCC(CN5CCN(c6cc7c(cc6F)C(=O)N(N6CCC(=O)NC6=O)C7=O)CC5)CC4)cn3)nc2n1C1CCCC1 [GT-05199, 7-cyclopentyl-2-((5-(4-((4-(2-(2,4-dioxotetrahydropyrimidin-1(2H)-yl)-6-fluoro-1,3-dioxoisoindolin-5-yl)piperazin-1-yl)methyl)piperidin-1-yl)pyridin-2-yl)amino)-N,N-dimethyl-7H-pyrrolo[2,3-d]pyrimidine-6-carboxamide] | 40 to 60 | 35 to 40 | A (0%≤substrate protein remaining %≤80%) | B (80%<substrate protein remaining %≤100%) |  |  |  | 
CN(C)C(=O)c1cc2cnc(Nc3ccc(N4CCC(CN5CCN(C6CCN(c7ccc8c(c7)C(=O)N(N7CCC(=O)NC7=O)C8=O)CC6)CC5)CC4)cn3)nc2n1C1CCCC1 [GT-05205, 7-cyclopentyl-2-((5-(4-((4-(1-(2-(2,4-dioxotetrahydropyrimidin-1(2H)-yl)-1,3-dioxoisoindolin-5-yl)piperidin-4-yl)piperazin-1-yl)methyl)piperidin-1-yl)pyridin-2-yl)amino)-N,N-dimethyl-7H-pyrrolo[2,3-d]pyrimidine-6-carboxamide] | 35 to 40 | 35 to 40 | A (0%≤substrate protein remaining %≤80%) | B (80%<substrate protein remaining %≤100%) | 20 to 25 | 40 to 60 |  | 
CN(C)C(=O)c1cc2cnc(Nc3ccc(N4CCN(CC5CCN(c6cccc7c6C(=O)N(N6CCC(=O)NC6=O)C7=O)CC5)CC4)cn3)nc2n1C1CCCC1 [GT-06338, 7-cyclopentyl-2-((5-(4-((1-(2-(2,4-dioxotetrahydropyrimidin-1(2H)-yl)-1,3-dioxoisoindolin-4-yl)piperidin-4-yl)methyl)piperazin-1-yl)pyridin-2-yl)amino)-N,N-dimethyl-7H-pyrrolo[2,3-d]pyrimidine-6-carboxamide] | 30 to 35 | 40 to 60 | A (0%≤substrate protein remaining %≤80%) | A (0%≤substrate protein remaining %≤80%) |  |  |  | 
CN(C)C(=O)c1cc2cnc(Nc3ccc(N4CCC(N(C)Cc5ccc6c(c5)CN(N5CCC(=O)NC5=O)C6=O)CC4)cn3)nc2n1C1CCCC1 [GT-06487, 7-cyclopentyl-2-((5-(4-(((2-(2,4-dioxotetrahydropyrimidin-1(2H)-yl)-1-oxoisoindolin-5-yl)methyl)(methyl)amino)piperidin-1-yl)pyridin-2-yl)amino)-N,N-dimethyl-7H-pyrrolo[2,3-d]pyrimidine-6-carboxamide] | 25 to 30 | 40 to 60 | A (0%≤substrate protein remaining %≤80%) | A (0%≤substrate protein remaining %≤80%) |  |  |  | 
CN(C)C(=O)c1cc2cnc(Nc3ccc(N4CCC(N(C)Cc5ccc6c(c5)C(=O)N(N5CCC(=O)NC5=O)C6=O)CC4)cn3)nc2n1C1CCCC1 [GT-06488, 7-cyclopentyl-2-((5-(4-(((2-(2,4-dioxotetrahydropyrimidin-1(2H)-yl)-1,3-dioxoisoindolin-5-yl)methyl)(methyl)amino)piperidin-1-yl)pyridin-2-yl)amino)-N,N-dimethyl-7H-pyrrolo[2,3-d]pyrimidine-6-carboxamide] |  |  | A (0%≤substrate protein remaining %≤80%) | B (80%<substrate protein remaining %≤100%) |  |  |  | 
CN(C)C(=O)c1cc2cnc(Nc3ccc(N4CCC(N5CCN(Cc6ccc7c(c6)CN(N6CCC(=O)NC6=O)C7=O)CC5)CC4)cn3)nc2n1C1CCCC1 [GT-06497, 7-cyclopentyl-2-((5-(4-(4-((2-(2,4-dioxotetrahydropyrimidin-1(2H)-yl)-1-oxoisoindolin-5-yl)methyl)piperazin-1-yl)piperidin-1-yl)pyridin-2-yl)amino)-N,N-dimethyl-7H-pyrrolo[2,3-d]pyrimidine-6-carboxamide] |  |  | A (0%≤substrate protein remaining %≤80%) | A (0%≤substrate protein remaining %≤80%) |  |  |  | 
CN(C)C(=O)c1cc2cnc(Nc3ccc(N4CCC(N5CCN(Cc6ccc7c(c6)C(=O)N(N6CCC(=O)NC6=O)C7=O)CC5)CC4)cn3)nc2n1C1CCCC1 [GT-06498, 7-cyclopentyl-2-((5-(4-(4-((2-(2,4-dioxotetrahydropyrimidin-1(2H)-yl)-1,3-dioxoisoindolin-5-yl)methyl)piperazin-1-yl)piperidin-1-yl)pyridin-2-yl)amino)-N,N-dimethyl-7H-pyrrolo[2,3-d]pyrimidine-6-carboxamide] |  |  | A (0%≤substrate protein remaining %≤80%) | A (0%≤substrate protein remaining %≤80%) |  |  |  | 
CC(=O)c1c(C)c2cnc(Nc3ccc(N4CCC(N(C)Cc5ccc6c(c5)CN(N5CCC(=O)NC5=O)C6=O)CC4)cn3)nc2n(C2CCCC2)c1=O [GT-06586, 1-(5-(((1-(6-((6-acetyl-8-cyclopentyl-5-methyl-7-oxo-7,8-dihydropyrido[2,3-d]pyrimidin-2-yl)amino)pyridin-3-yl)piperidin-4-yl)(methyl)amino)methyl)-1-oxoisoindolin-2-yl)dihydropyrimidine-2,4 (1H,3H)-dione] |  |  | A (0%≤substrate protein remaining %≤80%) | A (0%≤substrate protein remaining %≤80%) | 25 to 30 | 40 to 60 |  | 
Cc1nc2c(F)cc(-c3nc(Nc4ccc(CN5CCN(CC6CCN(c7ccc8c(c7)C(=O)N(N7CCC(=O)NC7=O)C8=O)CC6)CC5)cn4)ncc3F)cc2n1C(C)C [GT-06662, 2-(2,4-dioxotetrahydropyrimidin-1(2H)-yl)-5-(4-((4-((6-((5-fluoro-4-(4-fluoro-1-isopropyl-2-methyl-1H-benzo[d]imidazol-6-yl)pyrimidin-2-yl)amino)pyridin-3-yl)methyl)piperazin-1-yl)methyl)piperidin-1-yl)isoindoline-1,3-dione] |  |  | A (0%≤substrate protein remaining %≤80%) | B (80%<substrate protein remaining %≤100%) |  |  | 30 to 40 | 53 to 60
Cc1nc2c(F)cc(-c3nc(Nc4ccc(N5CCN(Cc6ccc7c(c6)C(=O)N(N6CCC(=O)NC6=O)C7=O)CC5)cn4)ncc3F)cc2n1C(C)C [GT-06673, 2-(2,4-dioxotetrahydropyrimidin-1(2H)-yl)-5-((4-(6-((5-fluoro-4-(4-fluoro-1-isopropyl-2-methyl-1H-benzo[d]imidazol-6-yl)pyrimidin-2-yl)amino)pyridin-3-yl)piperazin-1-yl)methyl)isoindoline-1,3-dione] |  |  | A (0%≤substrate protein remaining %≤80%) | B (80%<substrate protein remaining %≤100%) |  |  |  | 
Cc1nc2c(F)cc(-c3nc(Nc4ccc(N5CCC(N(C)Cc6ccc7c(c6)C(=O)N(N6CCC(=O)NC6=O)C7=O)CC5)cn4)ncc3F)cc2n1C(C)C [GT-06732, 2-(2,4-dioxotetrahydropyrimidin-1(2H)-yl)-5-(((1-(6-((5-fluoro-4-(4-fluoro-1-isopropyl-2-methyl-1H-benzo[d]imidazol-6-yl)pyrimidin-2-yl)amino)pyridin-3-yl)piperidin-4-yl)(methyl)amino)methyl)isoindoline-1,3-dione] |  |  | A (0%≤substrate protein remaining %≤80%) | B (80%<substrate protein remaining %≤100%) |  |  |  | 
